Data: US20100249068A1, “S[…] NUCLEOTIDE ANALOGS” (Alios BioPharma, Inc., priority 2009, published 2010)
pEC50: −log10 of the molar value.

system: stably HCV RNA-replicating cell line, AVA5 (genotype 1b, subgenomic replicon); assay: HCV replicon assay (intracellular HCV RNA levels by blot hybridization, normalized to β-actin RNA); assay type: cell-based; conditions: Hepatitis C virus; AVA5 cells, HCV genotype 1b subgenomic replicon; compounds added daily for three days; HCV RNA assessed 72 hours after treatment; read-out: Activity (EC50)
Procedure: Antiviral activity of test compounds was assessed (Okuse, et al., Antivir. Res. 2005 65:23) in the stably HCV RNA-replicating cell line, AVA5 (genotype 1b, subgenomic replicon, Blight, et al., Sci. 2000 290:1972). Compounds were added to dividing cultures daily for three days. […] Intracellular HCV RNA levels and cytotoxicity were assessed 72 hours after treatment.
Quadruplicate cultures for HCV RNA levels and cytoxicity (on 96-well plates) were used. A total of 12 untreated control cultures, and triplicate cultures treated with α-interferon (concentrations of: 10 IU/mL, 3.3 IU/mL, 1.1 IU/mL and 0.37 IU/mL) and 2′C-Me-C (concentrations of: 30 μM, 10 μM, 3.3 μM and 1.1 μM) served as assay controls.
Intracellular HCV RNA levels were measured using a conventional blot hybridization method, in which HCV RNA levels are normalized to the levels of β-actin RNA in each individual culture (Okuse, et al., Antivir. Res. 2005 65:23). Cytotoxicity was measured using an established neutral red dye uptake assay (Korba and Gerin, Antivir. Res. 1992 19:55; Okuse, et al., Antivir. Res. 2005 65:23). HCV RNA levels in the treated cultures are expressed as a percentage of the mean levels of RNA detected in untreated cultures. The absorbance of the internalized dye at […] (A510) was used for quantitative analysis.
Compounds were dissolved in 100% tissue culture grade DMSO (Sigma, Inc.) at 10 mM. Aliquots of test compounds sufficient for one daily treatment were made in individual tubes and all material was stored at −20° C. For the test, the compounds were suspended into culture medium at room temperature, and immediately added to the cell cultures. Compounds were analyzed separately in two groups with separate assay controls. The concentrations of the test compounds were run at concentrations of 10 μM, 3.3 μM, 1.1 μM and 0.37 μM. CC50, EC50 and EC90 were determined using the concentration response curve.

Q: `C[C@@H](O)[C@H]1O[C@@H](n2ccc3c(N)ncnc32)[C@H](O)[C@@H]1O` was tested. Which pEC50 did it give?
A: > 4.52

Q: `CC(O)[C@H]1O[C@@H](n2ccc(N)nc2=O)[C@@H](F)[C@@H]1O` (stereo partly drawn) was tested. Which pEC50 did it give?
A: > 4.52

Q: With `C[C@@H](O)[C@H]1O[C@@H](n2ccc(N)nc2=O)C(F)(F)[C@@H]1O` as the molecule, how does the pEC50 read?
A: > 5.30

Q: `C[C@@H](O)[C@H]1O[C@@H](n2cnc3c(N)ncnc32)[C@](C)(O)[C@@H]1O` was tested. Which pEC50 did it give?
A: > 4.52

Q: `C[C@H](O)[C@H]1O[C@@H](n2ccc(N)nc2=O)[C@@H](O)[C@@H]1O` was tested. Which pEC50 did it give?
A: > 3.70

Q: With `CC(O)[C@H]1O[C@@H](n2cnc3c(=O)[nH]c(N)nc32)[C@H](O)[C@@H]1O` (stereo partly drawn) as the molecule, how does the pEC50 read?
A: > 3.70

Q: How did the pEC50 turn out when `CC(OC(=O)c1ccccc1)[C@H]1O[C@@H](N2C=CC(N)NC2=O)[C@](C)(OC(=O)c2ccccc2)[C@@H]1OC(=O)c1ccccc1` (stereo partly drawn) was run?
A: > 4.52

Q: `C[C@H](O)[C@H]1O[C@@H](n2ccc(N)nc2=O)C(F)(F)[C@@H]1O` was tested. Which pEC50 did it give?
A: > 5.30

Q: `C[C@H](O)[C@H]1O[C@@H](n2ccc(N)nc2=O)[C@H](F)[C@@H]1O` was tested. Which pEC50 did it give?
A: > 4.52

Q: `CC(=O)Nc1ccn([C@@H]2O[C@H]([C@H](C)OC(C)=O)[C@@H](OC(C)=O)C2(F)F)c(=O)n1` was tested. Which pEC50 did it give?
A: > 5.30

Q: With `CCC(=O)O[C@@H](C)[C@H]1O[C@@H](n2ccc(N)nc2=O)C(F)(F)[C@@H]1O` as the molecule, how does the pEC50 read?
A: > 5.30

Q: How did the pEC50 turn out when `CCC(=O)O[C@@H](C)[C@H]1O[C@@H](n2ccc(N)nc2=O)C(F)(F)[C@@H]1OC(=O)CC` was run?
A: > 5.30

Q: With `CC(=O)O[C@@H](C)[C@H]1O[C@@H](n2ccc(N)nc2=O)C(F)(F)[C@@H]1O` as the molecule, how does the pEC50 read?
A: > 5.30

Q: `CC(=O)O[C@@H](C)[C@H]1O[C@@H](n2ccc(N)nc2=O)C(F)(F)[C@@H]1OC(C)=O` was tested. Which pEC50 did it give?
A: > 5.30

Q: How did the pEC50 turn out when `COC(=O)[C@@H](C)N[P@](=O)(Oc1ccccc1)O[C@H](C)[C@H]1O[C@@H](n2cnc3c(N)ncnc32)[C@H](O)[C@@H]1O` was run?
A: > 5.30

Q: How did the pEC50 turn out when `C[C@@H](O)[C@H]1O[C@@H](n2ccc(N)nc2=O)[C@@H](O)[C@@H]1O` was run?
A: > 5.30

same assay, conditions: Hepatitis C virus; AVA5 cells, HCV genotype 1b subgenomic replicon; compounds added daily for three days; HCV RNA assessed 72 hours after treatment; read-out: EC50

Q: With `C[C@H](O)C1O[C@@H](n2cnc3c(N)ncnc32)[C@](C)(O)[C@@H]1O` (stereo in doubt) [Compound 9, 2′,5′-C-dimethyladenosine] as the molecule, how does the pEC50 read?
A: 5.00 to 6.00

Q: With `CO[C@@H]1[C@H](O)[C@@H](CO)O[C@H]1n1ccc(N)nc1=O` [Compound 8a, 2′-O-methylcytidine, reference compound] as the molecule, how does the pEC50 read?
A: 5.00 to 6.00
